# According to patent US6242450A, “5-HT1F antagonists” (Eli Lilly and Company, priority 1999, dated 2001):
# System: male Wister rats
# Test: Social interaction test of anxiety
# Assay type: in vivo
# Conditions: rat, 20 mg/kg intraperitoneal, 1 hour before test, 5 minutes observation, significance at p<0.01
# Procedure: The procedure for this assay is summarized below.
# All experiments were performed on male Wister rats (Harlan laboratories, 275-300 gm). The rats were individually housed in a temperatu,re controlled room (72° F.) on a 12 hour day/night cycle. The rats were provided food and water ad libitum.
# Approximately 40 mg of the test compound was weighed into a 20 mL glass vial. To this solid were added 80 μL of lactic acid (85%). The mixture was sonicated for 2 minutes and then 4 mL of distilled water was added in 1 mL increments. Sonication of this mixture was continued until all of the solid had dissolved. Following sonication, the pH of the mixture was raised by the addition of dilute aqueous sodium hydroxide until the mixture reached a pH of about 5.5.
# Each rat was weighed and the test compound administered by intraperitoneal injection at 20 mg/kg of body weight. […]
# Experimental anxiety was measured by a social interaction test. […] A video camera was fixed above the social interaction box and all behavioral tests were recorded. […] The amount of time that the rat which received test compound spent interacting (i.e. grooming, sniffing, crawling upon) with the other rat was recorded. […]
# Social interaction data was analyzed as total interaction time in seconds and the raw scores were compared between baseline and treatment. […]
smiles,measurement,value
"O[C@H](COc1ccc2ccccc2c1)CN1CCC(O)(c2cnc3ccccc3c2)CC1 [Example 37, 1-((2S)-hydroxy-3-(naphth-2-yloxy)prop-1-yl)-4-hydroxy-4-(quinolin-3-yl)piperidine]",social interaction time as compared to baseline,significantly increase social interaction time as compared to baseline
